Experimental data taken from publication PMC5218480 (PLoS ONE, 2017).

Test system: MV-4-11 cells
Assay: Gene expression microarray analysis (Affymetrix PrimeView) and GSEA
Assay type: cell-based, human
Parameters: RFU PODN (11730768_x_at) / Fold change /veh PODN (11730768_x_at) / RFU LINC00158 (11744669_a_at) / Fold change /veh LINC00158 (11744669_a_at) / RFU DUSP10 (11751237_a_at) / Fold change /veh DUSP10 (11751237_a_at) / RFU ID3 (11757404_x_at) / Fold change /veh ID3 (11757404_x_at) / RFU PLEKHG5 (11737974_s_at) / Fold change /veh PLEKHG5 (11737974_s_at) / RFU LRRC4B (11730491_at) / Fold change /veh LRRC4B (11730491_at) / RFU GIMAP4 (11747438_a_at) / Fold change /veh GIMAP4 (11747438_a_at) / RFU KRT8 (11758183_x_at) / Fold change /veh KRT8 (11758183_x_at) / RFU CNN1 (11734310_a_at) / Fold change /veh CNN1 (11734310_a_at) / RFU VPS37D (11726825_at) / Fold change /veh VPS37D (11726825_at) / RFU C10orf10 (11716522_x_at) / Fold change /veh C10orf10 (11716522_x_at) / RFU KIR2DL2 /// KIR2DL4 /// KIR2DL5A /// KIR2DL5B /// KIR2DS1 /// KIR2DS2 /// KIR2DS3 /// KIR2DS4 /// KIR3DL3 /// KIR3DL3 /// KIR3DS1 (11738374_at) / Fold change /veh KIR2DL2 /// KIR2DL4 /// KIR2DL5A /// KIR2DL5B /// KIR2DS1 /// KIR2DS2 /// KIR2DS3 /// KIR2DS4 /// KIR3DL3 /// KIR3DL3 /// KIR3DS1 (11738374_at) / RFU C1QL1 (11718748_at) / Fold change /veh C1QL1 (11718748_at) / RFU TMPRSS4 (11747572_a_at) / Fold change /veh TMPRSS4 (11747572_a_at) / RFU HAMP (11756126_x_at) / Fold change /veh HAMP (11756126_x_at) / RFU RNFT2 (11725882_a_at) / Fold change /veh RNFT2 (11725882_a_at) / RFU NR4A2 (11747474_a_at) / Fold change /veh NR4A2 (11747474_a_at) / RFU ABCC12 (11746883_a_at) / Fold change /veh ABCC12 (11746883_a_at) / RFU TMEM136 (11760407_x_at) / Fold change /veh TMEM136 (11760407_x_at) / RFU CLDN22 /// WWC2 (11732394_at) / Fold change /veh CLDN22 /// WWC2 (11732394_at) / RFU HLA-DPB1 (11760878_x_at) / Fold change /veh HLA-DPB1 (11760878_x_at) / RFU SPINT1 (11716480_a_at) / Fold change /veh SPINT1 (11716480_a_at) / RFU GAP43 (11754022_s_at) / Fold change /veh GAP43 (11754022_s_at) / RFU A4GNT (11735810_at) / Fold change /veh A4GNT (11735810_at) / RFU PRB3 (11715151_x_at) / Fold change /veh PRB3 (11715151_x_at) / RFU TUBB4B (11761932_at) / Fold change /veh TUBB4B (11761932_at) / RFU CAPN14 (11732068_a_at) / Fold change /veh CAPN14 (11732068_a_at) / RFU TMCC2 (11721928_a_at) / Fold change /veh TMCC2 (11721928_a_at) / RFU IRGQ (11745062_a_at) / Fold change /veh IRGQ (11745062_a_at) / RFU FAM174B (11720279_a_at) / Fold change /veh FAM174B (11720279_a_at) / RFU TMPRSS4 (11748680_a_at) / Fold change /veh TMPRSS4 (11748680_a_at) / RFU FAM212B (11763350_a_at) / Fold change /veh FAM212B (11763350_a_at) / RFU PLEKHG5 (11743358_a_at) / Fold change /veh PLEKHG5 (11743358_a_at) / RFU ZSCAN30 (11745921_a_at) / Fold change /veh ZSCAN30 (11745921_a_at) / RFU CMKLR1 (11741424_a_at) / Fold change /veh CMKLR1 (11741424_a_at) / RFU LOC101060620 /// MAPK8IP1 (11723275_at) / Fold change /veh LOC101060620 /// MAPK8IP1 (11723275_at) / RFU SPTSSB (11747773_x_at) / Fold change /veh SPTSSB (11747773_x_at) / RFU PRSS12 (11739890_at) / Fold change /veh PRSS12 (11739890_at) / RFU BIN1 (11741810_x_at) / Fold change /veh BIN1 (11741810_x_at) / RFU WNT11 (11732464_a_at) / Fold change /veh WNT11 (11732464_a_at) / RFU C10orf10 (11716521_a_at) / Fold change /veh C10orf10 (11716521_a_at) / RFU C5orf56 (11738089_at) / Fold change /veh C5orf56 (11738089_at) / RFU CYB561 (11721691_x_at) / Fold change /veh CYB561 (11721691_x_at) / RFU ANKRD19P (11752326_a_at) / Fold change /veh ANKRD19P (11752326_a_at) / RFU OR2T12 /// OR2T33 /// OR2T8 (11738714_s_at) / Fold change /veh OR2T12 /// OR2T33 /// OR2T8 (11738714_s_at) / RFU VCAN (11748164_a_at) / Fold change /veh VCAN (11748164_a_at) / RFU JSRP1 (11732532_at) / Fold change /veh JSRP1 (11732532_at) / RFU KRTAP10-11 (11738290_x_at) / Fold change /veh KRTAP10-11 (11738290_x_at) / RFU MYO3A (11730013_a_at) / Fold change /veh MYO3A (11730013_a_at) / RFU EBF3 (11725865_a_at) / Fold change /veh EBF3 (11725865_a_at) / RFU CAMK2N1 (11719241_x_at) / Fold change /veh CAMK2N1 (11719241_x_at) / RFU C5orf56 (11738088_a_at) / Fold change /veh C5orf56 (11738088_a_at) / RFU OLFML3 (11715873_a_at) / Fold change /veh OLFML3 (11715873_a_at) / RFU LOC100653217 /// NTM (11731650_a_at) / Fold change /veh LOC100653217 /// NTM (11731650_a_at) / RFU MAPK11 (11762145_a_at) / Fold change /veh MAPK11 (11762145_a_at) / RFU FIZ1 (11724087_x_at) / Fold change /veh FIZ1 (11724087_x_at) / RFU OASL (11726364_x_at) / Fold change /veh OASL (11726364_x_at) / RFU SOX15 (11748057_x_at) / Fold change /veh SOX15 (11748057_x_at) / RFU CD79A (11719716_a_at) / Fold change /veh CD79A (11719716_a_at) / RFU HIST1H1D (11736915_at) / Fold change /veh HIST1H1D (11736915_at) / RFU CASKIN2 (11723855_a_at) / Fold change /veh CASKIN2 (11723855_a_at) / RFU LOC730098 (11760151_x_at) / Fold change /veh LOC730098 (11760151_x_at) / RFU OR4N2 (11742367_at) / Fold change /veh OR4N2 (11742367_at) / RFU PRRT2 (11749266_a_at) / Fold change /veh PRRT2 (11749266_a_at) / RFU SNX32 (11753110_a_at) / Fold change /veh SNX32 (11753110_a_at) / RFU CDHR5 (11726645_a_at) / Fold change /veh CDHR5 (11726645_a_at) / RFU RCAN1 (11760418_a_at) / Fold change /veh RCAN1 (11760418_a_at) / RFU FAM167A (11723789_a_at) / Fold change /veh FAM167A (11723789_a_at) / RFU FAM26E (11764081_at) / Fold change /veh FAM26E (11764081_at) / RFU ISYNA1 (11749810_s_at) / Fold change /veh ISYNA1 (11749810_s_at) / RFU ACY1 (11761880_at) / Fold change /veh ACY1 (11761880_at) / RFU 11764098_at / Fold change /veh 11764098_at / RFU SAMD14 (11745864_x_at) / Fold change /veh SAMD14 (11745864_x_at) / RFU NPB (11741838_a_at) / Fold change /veh NPB (11741838_a_at) / RFU TMPRSS6 (11731388_a_at) / Fold change /veh TMPRSS6 (11731388_a_at) / RFU KRTAP10-2 (11738614_at) / Fold change /veh KRTAP10-2 (11738614_at) / RFU ARHGAP8 /// PRR5-ARHGAP8 (11727945_x_at) / Fold change /veh ARHGAP8 /// PRR5-ARHGAP8 (11727945_x_at) / RFU KRTAP5-7 /// NADSYN1 (11734609_at) / Fold change /veh KRTAP5-7 /// NADSYN1 (11734609_at) / RFU RASL12 (11751679_a_at) / Fold change /veh RASL12 (11751679_a_at) / RFU CDKN2B (11736163_a_at) / Fold change /veh CDKN2B (11736163_a_at) / RFU PRF1 (11729649_at) / Fold change /veh PRF1 (11729649_at) / RFU, ZNF638 /// ZNF638-IT1 / Fold change vs veh, ZNF638 /// ZNF638-IT1 / RFU, PANK3 / Fold change vs veh, PANK3 / RFU, SH3YL1 / Fold change vs veh, SH3YL1 / RFU, ZEB2 / Fold change vs veh, ZEB2 / RFU, NRIP1 / Fold change vs veh, NRIP1 / RFU, PTTG1IP / Fold change vs veh, PTTG1IP / RFU, CAPN2 / Fold change vs veh, CAPN2 / RFU, MED14 / Fold change vs veh, MED14 / RFU, SNORA58 / Fold change vs veh, SNORA58 / RFU, C1orf63 / Fold change vs veh, C1orf63 / RFU, LRRFIP1 / Fold change vs veh, LRRFIP1 / RFU, NDUFAF7 / Fold change vs veh, NDUFAF7 / RFU, SLC12A2 / Fold change vs veh, SLC12A2 / RFU, IBTK / Fold change vs veh, IBTK / RFU, ESF1 / Fold change vs veh, ESF1 / Fold change vs veh, TMEM50B / RFU, TAOK1 / Fold change vs veh, TAOK1 / RFU, ACBD3 / Fold change vs veh, ACBD3 / RFU, TMA16 / Fold change vs veh, TMA16 / RFU, RWDD3 / Fold change vs veh, RWDD3 / RFU, BCAT1 / Fold change vs veh, BCAT1 / RFU, EDEM3 / Fold change vs veh, EDEM3 / RFU, TMEM33 / Fold change vs veh, TMEM33 / RFU, WDR75 / Fold change vs veh, WDR75 / RFU, AHCTF1 / Fold change vs veh, AHCTF1 / RFU, TFRC / Fold change vs veh, TFRC / RFU, ZDHHC17 / Fold change vs veh, ZDHHC17 / RFU, NOM1 / Fold change vs veh, NOM1 / RFU, ARL8B / Fold change vs veh, ARL8B / RFU, ZBTB11 / Fold change vs veh, ZBTB11 / RFU, TAMM41 / Fold change vs veh, TAMM41 / RFU, KIAA1704 /// LOC100996395 / Fold change vs veh, KIAA1704 /// LOC100996395 / RFU, ING1 / Fold change vs veh, ING1 / RFU, TRMT61B / Fold change vs veh, TRMT61B / RFU, FUBP3 / Fold change vs veh, FUBP3 / RFU, TP53 / Fold change vs veh, TP53 / RFU, TNKS2 / Fold change vs veh, TNKS2 / RFU, ZFP14 / Fold change vs veh, ZFP14 / RFU, ACTR2 / Fold change vs veh, ACTR2 / RFU, PPP3R1 / Fold change vs veh, PPP3R1 / RFU, PIK3R1 / Fold change vs veh, PIK3R1 / RFU, HNRNPA1 / Fold change vs veh, HNRNPA1 / RFU, RNF170 / Fold change vs veh, RNF170 / RFU, ZNF28 / Fold change vs veh, ZNF28 / RFU, RNGTT / Fold change vs veh, RNGTT / RFU, OGT / Fold change vs veh, OGT / RFU, BRD1 / Fold change vs veh, BRD1 / RFU, MARS / Fold change vs veh, MARS / RFU, ZNF655 / Fold change vs veh, ZNF655 / RFU, FAHD1 / Fold change vs veh, FAHD1 / RFU, BDP1 / Fold change vs veh, BDP1 / RFU, LRRCC1 / Fold change vs veh, LRRCC1 / RFU, ARID1A / Fold change vs veh, ARID1A / RFU, ZNF146 / Fold change vs veh, ZNF146 / RFU, ZNF330 / Fold change vs veh, ZNF330 / RFU, GPN3 / Fold change vs veh, GPN3 / RFU, C9orf123 / Fold change vs veh, C9orf123 / RFU, N4BP2L2 / Fold change vs veh, N4BP2L2 / RFU, ARFIP1 / Fold change vs veh, ARFIP1 / RFU, FAM179B / Fold change vs veh, FAM179B / RFU, BCL10 / Fold change vs veh, BCL10 / RFU, UHRF1BP1L / Fold change vs veh, UHRF1BP1L / RFU, BET1 / Fold change vs veh, BET1 / RFU, CNOT2 / Fold change vs veh, CNOT2 / RFU, ZNF268 / Fold change vs veh, ZNF268 / Fold change vs veh, ZNF507 / RFU, DGCR2 / Fold change vs veh, DGCR2 / RFU, WDSUB1 / Fold change vs veh, WDSUB1 / Fold change vs veh, HSP90B1 /// MIR3652 / RFU, ADSS / Fold change vs veh, ADSS / RFU, GK / Fold change vs veh, GK / RFU, ZNF148 / Fold change vs veh, ZNF148 / RFU, TAF9 / Fold change vs veh, TAF9 / RFU, SLC1A5 / Fold change vs veh, SLC1A5 / RFU, SLMO2 / Fold change vs veh, SLMO2 / RFU, ABCC4 / Fold change vs veh, ABCC4 / RFU, LOC101060439 /// RAP1B / Fold change vs veh, LOC101060439 /// RAP1B / RFU, RFX7 / Fold change vs veh, RFX7 / RFU, GTPBP10 / Fold change vs veh, GTPBP10 / RFU, CNEP1R1 / Fold change vs veh, CNEP1R1 / RFU, BIVM-ERCC5 /// ERCC5 / Fold change vs veh, BIVM-ERCC5 /// ERCC5 / RFU, ILF3 / Fold change vs veh, ILF3 / RFU 11762660_at / Fold change /veh 11762660_at / RFU VCAN (11757783_s_at) / Fold change /veh VCAN (11757783_s_at) / RFU DDX43 (11728927_at) / Fold change /veh DDX43 (11728927_at) / RFU KRT8 (11758188_x_at) / Fold change /veh KRT8 (11758188_x_at) / RFU NKD1 (11759106_at) / Fold change /veh NKD1 (11759106_at) / RFU SRD5A1 (11742802_a_at) / Fold change /veh SRD5A1 (11742802_a_at) / RFU TPSAB1 /// TPSB2 (11721975_s_at) / Fold change /veh TPSAB1 /// TPSB2 (11721975_s_at) / RFU GSTM3 (11746129_a_at) / Fold change /veh GSTM3 (11746129_a_at) / RFU IL23R (11737362_x_at) / Fold change /veh IL23R (11737362_x_at) / RFU TMEM51 (11727254_a_at) / Fold change /veh TMEM51 (11727254_a_at) / RFU PIWIL2 (11732686_x_at) / Fold change /veh PIWIL2 (11732686_x_at) / RFU ORM1 (11744905_x_at) / Fold change /veh ORM1 (11744905_x_at) / RFU CCDC152 (11743942_at) / Fold change /veh CCDC152 (11743942_at) / RFU ECM1 (11717891_a_at) / Fold change /veh ECM1 (11717891_a_at) / RFU IL23R (11748794_a_at) / Fold change /veh IL23R (11748794_a_at) / RFU TNFAIP8L3 (11732012_x_at) / Fold change /veh TNFAIP8L3 (11732012_x_at) / RFU MBOAT4 (11741988_at) / Fold change /veh MBOAT4 (11741988_at) / RFU 11764193_at / Fold change /veh 11764193_at / RFU TMEM53 (11763286_at) / Fold change /veh TMEM53 (11763286_at) / RFU MAGEB2 (11727129_at) / Fold change /veh MAGEB2 (11727129_at) / RFU TMEM200A (11744735_a_at) / Fold change /veh TMEM200A (11744735_a_at) / RFU CCDC152 (11751479_a_at) / Fold change /veh CCDC152 (11751479_a_at) / RFU FAM211A (11726209_a_at) / Fold change /veh FAM211A (11726209_a_at) / RFU RGS16 (11746705_a_at) / Fold change /veh RGS16 (11746705_a_at) / RFU VCAN (11755009_s_at) / Fold change /veh VCAN (11755009_s_at) / RFU RHOB (11743442_s_at) / Fold change /veh RHOB (11743442_s_at) / RFU RGS16 (11720943_a_at) / Fold change /veh RGS16 (11720943_a_at) / RFU RGS16 (11720944_at) / Fold change /veh RGS16 (11720944_at) / RFU, VPS4B / Fold change vs veh, VPS4B / RFU, CREB1 / Fold change vs veh, CREB1 / RFU, DNAJC13 / Fold change vs veh, DNAJC13 / RFU, GNAQ / Fold change vs veh, GNAQ / RFU, CDK5R1 / Fold change vs veh, CDK5R1 / RFU, ZRANB3 / Fold change vs veh, ZRANB3 / RFU, CUL4A / Fold change vs veh, CUL4A / RFU, CCNY / Fold change vs veh, CCNY / RFU, UFL1 / Fold change vs veh, UFL1 / RFU, COG3 / Fold change vs veh, COG3 / RFU, DIAPH2 / Fold change vs veh, DIAPH2 / RFU, SKA2 / Fold change vs veh, SKA2 / RFU, AFF3 / Fold change vs veh, AFF3 / RFU, LMF1 / Fold change vs veh, LMF1 / RFU, IPO11 / Fold change vs veh, IPO11 / RFU, DFFB / Fold change vs veh, DFFB / RFU, FOXP1 / Fold change vs veh, FOXP1 / RFU, CARD8 / Fold change vs veh, CARD8 / RFU, STRN3 / Fold change vs veh, STRN3 / RFU, ADK / Fold change vs veh, ADK / RFU, RASSF2 / Fold change vs veh, RASSF2 / RFU, WIPF1 / Fold change vs veh, WIPF1 / RFU, LARP1B / Fold change vs veh, LARP1B / RFU, RASA1 / Fold change vs veh, RASA1 / RFU, RB1 / Fold change vs veh, RB1 / RFU, PPFIA1 / Fold change vs veh, PPFIA1 / RFU, MAT2A / Fold change vs veh, MAT2A / RFU, CCT5 / Fold change vs veh, CCT5 / RFU, WDR92 / Fold change vs veh, WDR92 / RFU, CUX1 / Fold change vs veh, CUX1 / RFU, TTC7A / Fold change vs veh, TTC7A / RFU, TMEM135 / Fold change vs veh, TMEM135 / RFU, DEPTOR / Fold change vs veh, DEPTOR / RFU, CPM / Fold change vs veh, CPM / RFU, DNAJB6 / Fold change vs veh, DNAJB6 / RFU, CACNA2D3 / Fold change vs veh, CACNA2D3 / RFU, DTX4 / Fold change vs veh, DTX4 / RFU, TFCP2 / Fold change vs veh, TFCP2 / RFU, GMCL1 /// GMCL1P1 / Fold change vs veh, GMCL1 /// GMCL1P1 / RFU, AEBP2 / Fold change vs veh, AEBP2 / RFU, SNHG1 /// SNORD22 /// SNORD25 /// SNORD26 /// SNORD27 /// SNORD28 /// SNORD29 /// SNORD31 / Fold change vs veh, SNHG1 /// SNORD22 /// SNORD25 /// SNORD26 /// SNORD27 /// SNORD28 /// SNORD29 /// SNORD31 / Fold change (Aza/veh), C12orf56 (ProbeSet 11735607_a_at) / Fold change (ACY-1035/veh), C12orf56 (ProbeSet 11735607_a_at) / Fold change (Aza/veh), FGFR1OP (ProbeSet 11751329_s_at) / Fold change (ACY-1035/veh), FGFR1OP (ProbeSet 11751329_s_at) / Fold change (Aza/veh), VPS36 (ProbeSet 11739960_a_at) / Fold change (ACY-1035/veh), VPS36 (ProbeSet 11739960_a_at) / RFU SYPL1 (11715823_x_at) / Fold change /veh SYPL1 (11715823_x_at) / RFU IGFBP7 (11715501_s_at) / Fold change /veh IGFBP7 (11715501_s_at) / RFU REEP3 (11722064_at) / Fold change /veh REEP3 (11722064_at) / RFU IGLL1 (11728026_x_at) / Fold change /veh IGLL1 (11728026_x_at): dose or concentration left out as unconfirmed
Conditions: ProbeSet 11728271_at; LIST B

Nc1ccc(-c2cccs2)cc1NC(=O)c1ccc2c(c1)cc(C1CC1)n2CCN1CCOCC1 [ACY-1035]
Fold change vs veh, ZNF330: 0.88
